PMC3362575, “Synthesis and Biological Evaluation of Phenanthrenes as Cytotoxic Agents with Pharmacophore Modeling and ChemGPS-NP Prediction as Topo II Inhibitors” (PLoS ONE, 2012)
Converted amounts (≈) assume the structure as drawn.

What was measured:
Format in all cases: cell-based, human
[1] = tested on: Hep3B; experiment: MTT cytotoxicity assay, Hep3B; settings: for IC50: Homo sapiens, Hep3B, Table 1, natural phenanthrenes
Experimental: (§1) The cytotoxic assay of 11 naturally occurring and 19 synthesized phenanthrenes was carried out on a diverse set of human liver (HepG2 and Hep3B), oral (Ca9-22), lung (A549) and breast (MEA-MB-231 and MCF7) cancer cell lines, and a human fetal lung fibroblast (MRC-5) cell line (Tables 1 and 2).
(§2) Compounds were tested against human liver (HepG2 and Hep3B), oral (Ca9-22), lung (A549), breast (MEA-MB-231 and MCF7) cancer cell lines, and the human fetal lung fibroblast (MRC-5) cell line using an established colorimetric MTT assay protocol. The absorbance was measured at 550 nm using a microplate reader. The IC50 is the concentration of agent that reduced cell growth by 50% under the experimental conditions.

[2] = tested on: HepG2; experiment: MTT cytotoxicity assay, HepG2; settings: for IC50: Homo sapiens, HepG2, Table 1, natural phenanthrenes
Experimental: as §1, §2

[3] = tested on: Ca9-22; experiment: MTT cytotoxicity assay, Ca9-22; settings: for IC50: Homo sapiens, Ca9-22, Table 1, natural phenanthrenes
Experimental: as §1, §2

[4] = tested on: MCF-7; experiment: MTT cytotoxicity assay, MCF-7; settings: for IC50 / MCF-7 activity class (from IC50): Homo sapiens; for IC50: MCF7, Table 1, natural phenanthrenes; for MCF-7 activity class (from IC50): MCF7, Table S3, read-out: Scale Exptl. (MCF-7 activity class)
Experimental: as §1, §2
The pharmacophore modeling with Catalyst HypoGen was performed via Discovery Studio 2.1 (Accelrys, San Diego, CA, USA). Twenty-nine phenanthrene derivatives were collected from the natural plant, C. arisanensis, and from chemical synthesis (Figure 2). Cytotoxicity against MCF-7 cells was determined by the MTT assay and the concentration (µg/mL) of test compound which inhibited 50% of the cancer cells (IC50) was used in the generation of the pharmacophore model. An IC50 value of >20 µg/mL was defined as 20 µg/mL. All experimental IC50 values spanned about 2–3 orders of magnitude from 0.09 to 20 µg/mL. The 2D/3D structures of compounds were generated using ChemBioOffice 2008 (Cambridge Scientic Computing, Cambridge, Massachusetts, USA) and then optimized in a Dreiding force field. The conformational ensemble of each compound was generated using the best conformational analysis method based on a CHARMM force field with a 20 kcal/mol energy threshold above the global minimum. A maximum limit of 255 conformations was used to cover maximum conformational space. The best 3D arrangements of chemical functionalities should explain the activity variations among the 29 compounds. Thirty runs with different parameters were performed for the best pharmacophore hypothesis. Four chemical features, including hydrogen-bond acceptor (HBA), hydrogen-bond donor (HBD), hydrophobic (HYD), and aromatic ring (AR) features, were also tested during the building of pharmacophore hypotheses (Table S1; Text S1). The best hypotheses were selected via a correlation and a cost analysis in Catalyst HypoGen.

[5] = tested on: MRC-5; experiment: MTT cytotoxicity assay, MRC-5 fetal lung fibroblast; settings: normal fetal lung fibroblast; for IC50: Homo sapiens, MRC5, Table 1, natural phenanthrenes
Experimental: as §1, §2

[6] = tested on: MDA-MB-231; experiment: MTT cytotoxicity assay, MDA-MB-231; settings: for IC50: Homo sapiens, MDA-MB-231, Table 1, natural phenanthrenes
Experimental: as §1, §2

[7] = tested on: A549; experiment: MTT cytotoxicity assay, A549; settings: for IC50: Homo sapiens, A549, Table 1, natural phenanthrenes
Experimental: as §1, §2

[8] = Table 2, synthesized phenanthrenes

Row | Molecule | IC50 Hep3B [1, 8] | IC50 HepG2 [2, 8] | IC50 Ca9-22 [3, 8] | IC50 MCF-7 ([4]; Table 2, synthesized phenanthrenes, MTT) | Scale Exptl. (MCF-7 activity class) ([4]; Table S3) | IC50 MRC-5 [5, 8] | IC50 MDA-MB-231 [6, 8] | IC50 A549 [7, 8] | IC50 [1] | IC50 [2] | IC50 [3] | IC50 ([4]; MTT) | MCF-7 activity class (from IC50) [4] | IC50 [5] | IC50 [6] | IC50 [7]
1 | 5,6,7,5′,6′,7′-hexamethoxy-[8,8′]bi-1,4-phenanthrenequinone [Compound 4c] | 4.37 ± 0.00 µg/mL | 6.87 ± 0.10 µg/mL | 1.90 ± 0.01 µg/mL | 4.71 ± 0.26 µg/mL | ++ (moderately active (1.0 μg/mL < IC50 < 20.0 μg/mL, ++)) | 5.37 ± 0.25 µg/mL | 4.09 ± 0.12 µg/mL | 12.65 ± 0.48 µg/mL |  |  |  |  |  |  |  | 
2 | COC1=CC(=O)c2ccc3cc(OC)c(O)c(OC)c3c2C1=O [CA-2, calanquinone B] |  |  |  |  |  |  |  |  | 11.9 ± 0.55 µg/mL (≈ 38 µM) | 14.5 ± 0.43 µg/mL (≈ 46 µM) | 14.64 ± 0.11 µg/mL (≈ 46.6 µM) | 11.9 ± 0.08 µg/mL (≈ 37.9 µM) | 1 to 20 µg/mL | > 20 µg/mL | > 20 µg/mL | 18.5 ± 0.29 µg/mL (≈ 58.9 µM)
3 | COc1cc2c(c(OC)c1O)C1=C(CC2)C(=O)C=CC1=O [CA-3] |  |  |  |  |  |  |  |  | 6.02 ± 0.12 µg/mL (≈ 21 µM) | 19.76 ± 0.16 µg/mL (≈ 69 µM) | 12.6 ± 0.76 µg/mL (≈ 43.8 µM) | 13.2 µg/mL (≈ 46.3 µM) | 1 to 20 µg/mL | > 20 µg/mL | 11.9 ± 0.02 µg/mL (≈ 41.6 µM) | > 20 µg/mL
4 | COc1cc2c(c(OC)c1O)-c1c(O)ccc(O)c1CC2 [CA-4] |  |  |  |  |  |  |  |  | 11.1 ± 0.73 µg/mL (≈ 38.3 µM) | > 20 µg/mL | 15.12 ± 0.14 µg/mL (≈ 52.4 µM) | 14.3 ± 0.18 µg/mL (≈ 49.6 µM) | 1 to 20 µg/mL | > 20 µg/mL | 19.8 ± 0.45 µg/mL (≈ 68.8 µM) | > 20 µg/mL
5 | COc1c(O)cc2c(c1OC)-c1c(O)ccc(O)c1CC2 [CA-5] |  |  |  |  |  |  |  |  | 9.87 ± 0.09 µg/mL (≈ 34.2 µM) | 17.8 ± 0.4 µg/mL (≈ 61.7 µM) | 12.17 ± 0.03 µg/mL (≈ 42.2 µM) | 12.7 ± 0.07 µg/mL (≈ 44.1 µM) | 1 to 20 µg/mL | > 20 µg/mL | 11.7 ± 0.13 µg/mL (≈ 40.4 µM) | > 20 µg/mL
6 | COc1cc2c(c(OC)c1OC)-c1c(O)ccc(O)c1CC2 [CA-6] |  |  |  |  |  |  |  |  | 11.5 ± 0.76 µg/mL (≈ 38 µM) | > 20 µg/mL | 14.6 ± 0.31 µg/mL (≈ 48.2 µM) | > 20 µg/mL | > 20 µg/mL | > 20 µg/mL | > 20 µg/mL | > 20 µg/mL
7 | COc1cc(O)c2c(c1)CCc1ccc(O)c(OC)c1-2 [CA-7] |  |  |  |  |  |  |  |  | > 20 µg/mL | > 20 µg/mL | > 20 µg/mL | 14.6 ± 0.34 µg/mL (≈ 53.7 µM) | 1 to 20 µg/mL | > 20 µg/mL | > 20 µg/mL | > 20 µg/mL
8 | COc1cc2ccc3cccc(O)c3c2c(OC)c1O [CA-8] |  |  |  |  |  |  |  |  | > 20 µg/mL | > 20 µg/mL | > 20 µg/mL | > 20 µg/mL | > 20 µg/mL | > 20 µg/mL | > 20 µg/mL | > 20 µg/mL
9 | COc1cc2c(cc1O)CCc1cc(O)cc(OC)c1-2 [CA-9] |  |  |  |  |  |  |  |  | 12.9 ± 0.32 µg/mL (≈ 47.3 µM) | > 20 µg/mL | 13 ± 0.42 µg/mL (≈ 47.7 µM) | 10.2 ± 0.27 µg/mL (≈ 37.6 µM) | 1 to 20 µg/mL | > 20 µg/mL | 19.5 ± 0.58 µg/mL (≈ 71.5 µM) | 18.1 ± 0.26 µg/mL (≈ 66.5 µM)
10 | COc1cc(O)cc2c1-c1ccc(O)cc1CC2 [CA-10] |  |  |  |  |  |  |  |  | 7.24 ± 0.18 µg/mL (≈ 29.9 µM) | 7.52 µg/mL (≈ 31 µM) | 6.11 ± 0.51 µg/mL (≈ 25.2 µM) | 6.77 ± 0.12 µg/mL (≈ 27.9 µM) | 1 to 20 µg/mL | 16.4 ± 0.36 µg/mL (≈ 67.7 µM) | 7.56 ± 0.03 µg/mL (≈ 31.2 µM) | 7.46 ± 0.32 µg/mL (≈ 30.8 µM)
11 | COc1cc(O)c(-c2c(O)cc(OC)c3c2CCc2cc(O)ccc2-3)c2c1-c1ccc(O)cc1CC2 [CA-11] |  |  |  |  |  |  |  |  | 6.28 ± 0.26 µg/mL (≈ 13 µM) | 7.17 ± 0.35 µg/mL (≈ 14.9 µM) | 5.86 ± 0.06 µg/mL (≈ 12.1 µM) | 4.84 ± 0.89 µg/mL (≈ 10 µM) | 1 to 20 µg/mL | 13.2 ± 0.33 µg/mL (≈ 27.3 µM) | 7.42 ± 0.03 µg/mL (≈ 15.4 µM) | 7.4 ± 0.01 µg/mL (≈ 15.3 µM)
